Data taken from publication PMC3639963, “A New Class of Small Molecule Inhibitor of BMP Signaling” (PLoS ONE, 2013).

Columns and labels:
Test in all cases: Nanosyn kinase profiling
Format in all cases: biochemical
Details in all cases: read-out: Percentage inhibition; for inhibition at 0.1 µM: 0.1 µM inhibitor; for inhibition at 1 µM: 1 µM inhibitor
[1] = biological target: T1, FGFR2 (Homo sapiens, UniProt P21802)
T1 construct: purchased Nanosyn (enzymatic panel); SGC in-house recombinant human kinases (DSF panel); Invitrogen (ALK1-6)
T1 sequence (P21802 22-821): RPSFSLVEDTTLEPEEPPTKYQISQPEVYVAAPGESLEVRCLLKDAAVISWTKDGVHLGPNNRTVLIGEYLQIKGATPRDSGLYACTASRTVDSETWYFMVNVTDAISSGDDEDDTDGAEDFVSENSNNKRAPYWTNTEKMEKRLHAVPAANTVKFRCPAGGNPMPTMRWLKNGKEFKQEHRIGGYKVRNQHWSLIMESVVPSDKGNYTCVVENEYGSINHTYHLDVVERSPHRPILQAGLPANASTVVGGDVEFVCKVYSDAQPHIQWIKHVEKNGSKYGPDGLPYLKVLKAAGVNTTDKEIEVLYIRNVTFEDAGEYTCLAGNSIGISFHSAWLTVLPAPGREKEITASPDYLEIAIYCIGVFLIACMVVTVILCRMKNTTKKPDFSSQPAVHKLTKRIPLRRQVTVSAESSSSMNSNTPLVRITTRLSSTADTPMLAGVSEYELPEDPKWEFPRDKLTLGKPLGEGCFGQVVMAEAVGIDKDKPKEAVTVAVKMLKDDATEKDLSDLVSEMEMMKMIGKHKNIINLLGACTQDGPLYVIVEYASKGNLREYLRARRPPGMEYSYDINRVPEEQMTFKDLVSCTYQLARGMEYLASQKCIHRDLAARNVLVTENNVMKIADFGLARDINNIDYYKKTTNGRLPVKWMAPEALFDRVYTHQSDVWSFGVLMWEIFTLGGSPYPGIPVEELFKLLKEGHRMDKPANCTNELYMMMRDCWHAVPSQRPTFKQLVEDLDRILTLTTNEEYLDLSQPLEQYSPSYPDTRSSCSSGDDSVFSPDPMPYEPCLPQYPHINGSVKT
Summary of the method: (§1)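 Percent inhibition of each kinase was measured with the inhibitor at 0.1 µM and at 1 µM, as part of a 200-kinase human selectivity panel.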

[2] = biological target: T2, NEK1 (Homo sapiens, UniProt Q96PY6)
T2 construct: purchased Nanosyn (enzymatic panel); SGC in-house recombinant human kinases (DSF panel); Invitrogen (ALK1-6)
T2 sequence (Q96PY6 1-1258): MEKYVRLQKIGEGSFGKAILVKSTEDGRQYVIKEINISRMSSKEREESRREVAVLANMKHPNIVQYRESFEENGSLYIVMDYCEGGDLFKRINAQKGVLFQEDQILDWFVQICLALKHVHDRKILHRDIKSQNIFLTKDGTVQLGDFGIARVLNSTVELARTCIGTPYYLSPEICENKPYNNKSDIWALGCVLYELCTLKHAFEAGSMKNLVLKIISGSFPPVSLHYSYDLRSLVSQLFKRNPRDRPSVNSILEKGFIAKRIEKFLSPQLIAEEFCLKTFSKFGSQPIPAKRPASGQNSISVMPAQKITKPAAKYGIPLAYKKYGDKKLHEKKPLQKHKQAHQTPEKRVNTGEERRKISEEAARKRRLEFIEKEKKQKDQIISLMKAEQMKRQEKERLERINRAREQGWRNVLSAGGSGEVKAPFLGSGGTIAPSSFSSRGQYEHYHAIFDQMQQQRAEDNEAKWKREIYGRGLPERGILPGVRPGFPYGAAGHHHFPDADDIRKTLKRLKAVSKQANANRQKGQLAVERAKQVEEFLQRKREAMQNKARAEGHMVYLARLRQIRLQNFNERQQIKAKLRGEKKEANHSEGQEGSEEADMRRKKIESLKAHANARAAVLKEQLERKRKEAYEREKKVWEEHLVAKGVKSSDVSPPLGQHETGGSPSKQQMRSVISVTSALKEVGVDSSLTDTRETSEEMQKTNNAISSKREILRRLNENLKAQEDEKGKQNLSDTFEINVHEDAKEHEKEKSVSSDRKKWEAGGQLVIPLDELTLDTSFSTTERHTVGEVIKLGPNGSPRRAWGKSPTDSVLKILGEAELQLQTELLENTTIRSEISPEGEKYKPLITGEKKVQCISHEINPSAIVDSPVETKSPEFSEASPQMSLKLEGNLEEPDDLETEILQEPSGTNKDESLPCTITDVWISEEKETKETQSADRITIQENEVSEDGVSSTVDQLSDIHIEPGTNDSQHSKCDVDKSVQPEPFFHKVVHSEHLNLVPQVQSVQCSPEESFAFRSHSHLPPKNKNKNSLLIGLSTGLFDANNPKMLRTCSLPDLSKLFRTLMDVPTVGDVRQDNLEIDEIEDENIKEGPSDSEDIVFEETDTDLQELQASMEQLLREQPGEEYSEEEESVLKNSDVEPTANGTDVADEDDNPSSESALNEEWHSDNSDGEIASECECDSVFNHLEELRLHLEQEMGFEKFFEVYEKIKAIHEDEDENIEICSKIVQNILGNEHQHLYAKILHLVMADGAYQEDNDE
Summary of the method: as §1

[3] = biological target: T3, p38δ (Homo sapiens, UniProt O15264)
T3 construct: purchased Nanosyn (enzymatic panel); SGC in-house recombinant human kinases (DSF panel); Invitrogen (ALK1-6)
T3 sequence (O15264 1-365): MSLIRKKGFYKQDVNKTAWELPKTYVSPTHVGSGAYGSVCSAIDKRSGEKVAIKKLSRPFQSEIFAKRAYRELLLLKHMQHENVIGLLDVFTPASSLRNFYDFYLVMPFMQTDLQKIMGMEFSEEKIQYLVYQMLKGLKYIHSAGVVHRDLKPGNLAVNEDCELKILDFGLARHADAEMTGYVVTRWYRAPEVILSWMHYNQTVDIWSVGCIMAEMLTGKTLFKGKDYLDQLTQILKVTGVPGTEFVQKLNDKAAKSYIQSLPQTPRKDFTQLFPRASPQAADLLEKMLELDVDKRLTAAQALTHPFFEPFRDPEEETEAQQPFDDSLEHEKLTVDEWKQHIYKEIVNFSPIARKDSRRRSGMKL
Summary of the method: as §1

[4] = biological target: T4, P70S6KB1 (Homo sapiens, UniProt P23443)
T4 construct: purchased Nanosyn (enzymatic panel); SGC in-house recombinant human kinases (DSF panel); Invitrogen (ALK1-6)
T4 sequence (P23443 whole entry): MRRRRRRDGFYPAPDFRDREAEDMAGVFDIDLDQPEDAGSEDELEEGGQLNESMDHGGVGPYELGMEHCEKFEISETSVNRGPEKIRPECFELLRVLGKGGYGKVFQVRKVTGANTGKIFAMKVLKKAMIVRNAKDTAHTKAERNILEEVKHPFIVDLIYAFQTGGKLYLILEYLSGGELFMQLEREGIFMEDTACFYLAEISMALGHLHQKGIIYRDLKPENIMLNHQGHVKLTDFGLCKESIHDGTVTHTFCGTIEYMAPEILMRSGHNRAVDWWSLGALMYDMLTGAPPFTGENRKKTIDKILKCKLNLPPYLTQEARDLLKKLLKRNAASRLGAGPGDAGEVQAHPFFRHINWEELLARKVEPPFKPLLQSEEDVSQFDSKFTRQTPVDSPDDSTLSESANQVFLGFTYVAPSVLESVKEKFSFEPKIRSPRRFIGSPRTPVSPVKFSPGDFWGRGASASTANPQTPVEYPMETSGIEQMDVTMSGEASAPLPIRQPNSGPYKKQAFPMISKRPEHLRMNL
Summary of the method: as §1

[5] = biological target: T5, MAPK3 (Homo sapiens, UniProt P27361)
T5 construct: purchased Nanosyn (enzymatic panel); SGC in-house recombinant human kinases (DSF panel); Invitrogen (ALK1-6)
T5 sequence (P27361 whole entry): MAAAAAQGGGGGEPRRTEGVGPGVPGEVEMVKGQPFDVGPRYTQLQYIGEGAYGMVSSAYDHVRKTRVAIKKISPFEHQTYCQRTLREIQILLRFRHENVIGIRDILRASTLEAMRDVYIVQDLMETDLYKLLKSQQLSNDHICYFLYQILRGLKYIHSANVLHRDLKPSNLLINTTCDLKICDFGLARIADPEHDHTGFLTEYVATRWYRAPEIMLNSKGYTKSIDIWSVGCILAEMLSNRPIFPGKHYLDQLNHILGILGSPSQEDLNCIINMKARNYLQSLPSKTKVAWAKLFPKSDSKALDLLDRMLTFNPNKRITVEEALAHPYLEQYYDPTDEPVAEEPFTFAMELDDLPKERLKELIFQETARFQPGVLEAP
Summary of the method: as §1

[6] = biological target: T6, FLT1 (Homo sapiens, UniProt P17948)
T6 construct: purchased Nanosyn (enzymatic panel); SGC in-house recombinant human kinases (DSF panel); Invitrogen (ALK1-6)
T6 sequence (P17948 27-1338): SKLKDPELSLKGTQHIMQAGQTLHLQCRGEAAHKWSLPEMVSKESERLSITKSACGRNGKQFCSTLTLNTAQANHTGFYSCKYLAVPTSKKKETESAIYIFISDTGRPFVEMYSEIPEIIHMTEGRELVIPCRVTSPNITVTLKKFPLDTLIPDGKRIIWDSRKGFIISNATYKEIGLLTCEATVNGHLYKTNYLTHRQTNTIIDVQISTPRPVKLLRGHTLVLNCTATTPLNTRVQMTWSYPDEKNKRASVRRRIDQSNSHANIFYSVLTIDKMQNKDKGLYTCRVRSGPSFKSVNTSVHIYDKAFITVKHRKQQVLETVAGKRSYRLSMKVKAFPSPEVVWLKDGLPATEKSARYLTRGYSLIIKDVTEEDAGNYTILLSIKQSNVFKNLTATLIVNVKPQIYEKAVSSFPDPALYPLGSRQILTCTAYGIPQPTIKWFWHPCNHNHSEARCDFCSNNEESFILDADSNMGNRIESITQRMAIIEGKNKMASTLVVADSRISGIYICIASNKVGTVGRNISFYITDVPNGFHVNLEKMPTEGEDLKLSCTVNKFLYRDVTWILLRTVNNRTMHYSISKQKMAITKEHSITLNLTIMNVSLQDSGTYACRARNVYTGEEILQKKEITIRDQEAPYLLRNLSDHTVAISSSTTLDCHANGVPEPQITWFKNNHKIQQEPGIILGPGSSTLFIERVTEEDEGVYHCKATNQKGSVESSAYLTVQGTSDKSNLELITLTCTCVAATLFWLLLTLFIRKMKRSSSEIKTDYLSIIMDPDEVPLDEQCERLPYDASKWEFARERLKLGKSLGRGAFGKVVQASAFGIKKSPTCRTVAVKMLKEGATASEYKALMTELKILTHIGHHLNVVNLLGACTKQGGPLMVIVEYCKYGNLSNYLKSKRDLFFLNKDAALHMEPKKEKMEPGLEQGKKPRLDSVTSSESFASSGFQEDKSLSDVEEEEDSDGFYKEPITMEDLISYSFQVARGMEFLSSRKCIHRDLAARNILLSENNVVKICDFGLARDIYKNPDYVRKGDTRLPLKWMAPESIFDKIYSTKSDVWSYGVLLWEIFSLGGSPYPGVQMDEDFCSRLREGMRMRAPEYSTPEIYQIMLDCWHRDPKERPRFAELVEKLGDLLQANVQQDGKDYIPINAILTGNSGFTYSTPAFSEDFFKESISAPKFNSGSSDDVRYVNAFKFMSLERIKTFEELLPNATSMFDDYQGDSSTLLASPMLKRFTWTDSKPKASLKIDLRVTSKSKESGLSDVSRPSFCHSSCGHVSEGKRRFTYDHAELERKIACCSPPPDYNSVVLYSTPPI
Summary of the method: as §1

[7] = biological target: T7, PRKG1 (Homo sapiens, UniProt Q13976)
T7 construct: purchased Nanosyn (enzymatic panel); SGC in-house recombinant human kinases (DSF panel); Invitrogen (ALK1-6)
T7 sequence (Q13976 1-671): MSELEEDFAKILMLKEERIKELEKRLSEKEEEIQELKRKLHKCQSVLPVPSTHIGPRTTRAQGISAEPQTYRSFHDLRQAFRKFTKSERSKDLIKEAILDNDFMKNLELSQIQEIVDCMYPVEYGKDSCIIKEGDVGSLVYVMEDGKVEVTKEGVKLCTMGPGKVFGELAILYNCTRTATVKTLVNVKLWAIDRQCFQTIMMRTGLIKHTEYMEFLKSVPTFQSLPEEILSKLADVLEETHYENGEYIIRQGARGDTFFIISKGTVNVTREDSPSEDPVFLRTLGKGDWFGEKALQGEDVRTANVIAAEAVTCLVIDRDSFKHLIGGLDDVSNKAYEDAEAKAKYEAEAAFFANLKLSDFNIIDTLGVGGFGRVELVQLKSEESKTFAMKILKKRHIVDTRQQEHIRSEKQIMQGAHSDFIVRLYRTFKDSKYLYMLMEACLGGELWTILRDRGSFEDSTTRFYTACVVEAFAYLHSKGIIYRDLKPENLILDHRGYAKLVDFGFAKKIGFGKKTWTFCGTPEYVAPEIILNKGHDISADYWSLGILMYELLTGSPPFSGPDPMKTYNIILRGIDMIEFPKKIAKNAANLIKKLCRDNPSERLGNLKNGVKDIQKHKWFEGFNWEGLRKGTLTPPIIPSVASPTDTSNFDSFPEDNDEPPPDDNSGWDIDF
Summary of the method: as §1

[8] = biological target: T8, LOK (Homo sapiens, UniProt O94804)
T8 construct: purchased Nanosyn (enzymatic panel); SGC in-house recombinant human kinases (DSF panel); Invitrogen (ALK1-6)
T8 sequence (O94804 whole entry): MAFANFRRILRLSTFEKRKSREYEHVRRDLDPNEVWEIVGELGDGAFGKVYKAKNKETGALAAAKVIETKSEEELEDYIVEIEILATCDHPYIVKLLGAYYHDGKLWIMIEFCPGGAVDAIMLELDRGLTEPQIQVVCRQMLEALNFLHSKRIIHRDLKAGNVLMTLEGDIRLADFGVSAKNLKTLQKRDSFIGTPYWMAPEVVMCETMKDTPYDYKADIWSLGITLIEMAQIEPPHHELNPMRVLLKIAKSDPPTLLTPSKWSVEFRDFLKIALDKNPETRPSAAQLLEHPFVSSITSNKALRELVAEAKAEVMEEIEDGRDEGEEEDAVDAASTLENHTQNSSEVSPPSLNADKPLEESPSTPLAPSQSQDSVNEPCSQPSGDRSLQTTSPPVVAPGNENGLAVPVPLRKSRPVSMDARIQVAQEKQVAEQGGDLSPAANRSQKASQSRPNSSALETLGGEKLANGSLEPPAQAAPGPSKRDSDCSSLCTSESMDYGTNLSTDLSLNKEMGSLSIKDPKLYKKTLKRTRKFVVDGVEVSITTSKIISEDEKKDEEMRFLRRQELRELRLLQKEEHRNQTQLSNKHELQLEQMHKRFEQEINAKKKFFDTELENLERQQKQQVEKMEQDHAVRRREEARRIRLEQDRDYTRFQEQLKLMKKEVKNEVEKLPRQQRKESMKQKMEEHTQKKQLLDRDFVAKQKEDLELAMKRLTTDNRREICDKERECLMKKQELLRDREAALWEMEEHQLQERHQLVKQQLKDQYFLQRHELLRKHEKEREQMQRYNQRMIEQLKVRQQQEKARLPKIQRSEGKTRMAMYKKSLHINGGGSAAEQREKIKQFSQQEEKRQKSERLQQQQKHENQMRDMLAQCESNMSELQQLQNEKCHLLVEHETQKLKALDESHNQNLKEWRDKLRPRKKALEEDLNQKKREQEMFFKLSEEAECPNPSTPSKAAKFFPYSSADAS
Summary of the method: as §1

[9] = biological target: T9, MNK2 (Homo sapiens, UniProt Q9HBH9)
T9 construct: purchased Nanosyn (enzymatic panel); SGC in-house recombinant human kinases (DSF panel); Invitrogen (ALK1-6)
T9 sequence (Q9HBH9 whole entry): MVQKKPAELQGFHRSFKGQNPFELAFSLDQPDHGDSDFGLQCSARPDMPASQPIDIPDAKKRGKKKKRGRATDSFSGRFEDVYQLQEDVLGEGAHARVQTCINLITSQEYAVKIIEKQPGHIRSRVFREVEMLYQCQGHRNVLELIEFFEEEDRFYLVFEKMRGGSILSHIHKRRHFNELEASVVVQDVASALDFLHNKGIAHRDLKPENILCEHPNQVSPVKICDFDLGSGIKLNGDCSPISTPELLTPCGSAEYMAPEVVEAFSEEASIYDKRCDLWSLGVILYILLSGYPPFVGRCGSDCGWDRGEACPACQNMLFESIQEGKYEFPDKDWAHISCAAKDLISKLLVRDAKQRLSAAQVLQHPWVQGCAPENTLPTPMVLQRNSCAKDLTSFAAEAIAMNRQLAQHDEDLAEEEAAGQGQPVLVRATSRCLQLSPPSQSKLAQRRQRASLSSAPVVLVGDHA
Summary of the method: as §1

| SMILES | inhibition at 0.1 µM [1] [%] | inhibition at 1 µM [1] [%] | inhibition at 0.1 µM [2] [%] | inhibition at 1 µM [2] [%] | inhibition at 0.1 µM [3] [%] | inhibition at 1 µM [3] [%] | inhibition at 0.1 µM [4] [%] | inhibition at 1 µM [4] [%] | inhibition at 0.1 µM [5] [%] | inhibition at 1 µM [5] [%] | inhibition at 0.1 µM [6] [%] | inhibition at 1 µM [6] [%] | inhibition at 0.1 µM [7] [%] | inhibition at 1 µM [7] [%] | inhibition at 0.1 µM [8] [%] | inhibition at 1 µM [8] [%] | inhibition at 0.1 µM [9] [%] | inhibition at 1 µM [9] [%] |
| --- | --- | --- | --- | --- | --- | --- | --- | --- | --- | --- | --- | --- | --- | --- | --- | --- | --- | --- |
| COc1cc(-c2cc(-c3cccc(O)c3)cnc2N)cc(OC)c1OC [K02288, 3-[6-amino-5-(3,4,5-trimethoxy-phenyl)-pyridin-3-yl]-phenol] | 0.3 | 1.1 | -1 | 0.8 | -3 | -3 | -2 | -1 | 0 | -1 | 0 | -2 | 0.3 | 3.3 | 3.5 | 25 | 1.9 | 3.2 |
| c1ccc2c(-c3cnn4cc(-c5ccc(N6CCNCC6)cc5)cnc34)ccnc2c1 [LDN-193189] | 5 | 18 | 2.1 | 3.4 | 1.8 | 0.5 | 1 | 0.6 | 1.9 | -2 | 0 | 17 | 1 | 1.2 | 8.3 | 38 | 3.7 | 31 |
